{"source": "patent US7390783B2", "about": "“Charged phospholipid compositions and methods for their use” (Ottawa Heart Institute Research Corporation, priority 2000, dated 2008)", "key": {"[1]": {"system": "HDL, LDL and VLDL cholesterol", "test": "PI injections into hypercholesterolemic (cholesterol-fed) rabbits: lipoprotein cholesterol levels", "assay_type": "in vivo, rabbit", "details": "36 mg 2× daily for 7 days", "protocol": "Referring now to FIG. 8, there is graphically depicted the effect of PI injection on lipoprotein cholesterol levels in hypercholesterolemic rabbits. Rabbits were fed a diet enriched in cholesterol for a period of 4 weeks to increase the levels of cholesterol in the LDL and VLDL particles in the bloodstream. One half of the study rabbits were then injected with 36 mg of PI 2× daily for 7 days. On day 7, plasma samples were drawn and lipoproteins were fractionated by size exclusion chromatography on two Superose 6 columns. Shown are gel filtration profiles for the different rabbit plasmas, which illustrate the levels of cholesterol in the various lipoprotein fractions. The untreated hypercholesterolemic rabbit plasma sample is shown to have high levels of LDL and VLDL cholesterol. PI injections caused a greater than 7-fold reduction in VLDL cholesterol and about a 2.5-fold reduction in LDL cholesterol levels over the 7 day period. […] PI therefore can be used to treat hypercholesterolemia and reduce plasma LDL and VLDL cholesterol levels."}, "[2]": {"system": "VLDL, LDL and HDL in human plasma", "test": "Lipoprotein charge in human plasma incubated with PI or DOTAP vesicles", "assay_type": "biochemical", "details": "24 h at 4° C.; for Lipoprotein Surface Charge LDL: no lipid 2.5; for Lipoprotein Surface Charge VLDL: no lipid 5.5; for Lipoprotein Surface Charge HDL: no lipid 11.8", "protocol": "Different concentrations as shown below of negatively charged phospholipid (PI) or positively charged phospholipid (DOTAP) were added to human plasma and the surface charge on the lipoproteins was determined. The human plasma was incubated with PI or dioleoyl trimethylammonium-propane (DOTAP) vesicles for 24 h at 4° C. and then electrophoresed on 0.5% agarose. Lipoprotein charge was calculated from electrokinetic analyses."}, "biliary FC output": {"system": "biliary FC output", "test": "Biliary FC output after injection of PI or PC vesicles containing [^3H]-FC", "assay_type": "in vivo, rabbit", "details": "sacrificed at 30 min", "protocol": "Rabbits are injected with 40 μmol PI or PC vesicles containing 400 μCi […]. Animals are sacrificed at 30 min, and bile is aspirated from the gall bladder. In addition the livers are harvested, homogenized and tissue radioactivity determined. Sterol excretion in the faeces is measured similarly except that faecal cholesterol levels are measured over a time period of 96 hours.\nReferring now to FIG. 6, there is shown the effect of PI on biliary FC output after rabbits are injected with PI or PC vesicles containing [^3H]-FC. […] Without wishing to be bound by theory, PI may enhance the clearance of cholesterol from plasma and promote its uptake and accumulation in the liver. In addition, PI injection appears to be associated with an increase output of cholesterol into bile. About 20-fold enhanced output of cholesterol into bile is observed (FIG. 6)."}, "[3]": {"system": "faecal cholesterol output", "test": "Faecal cholesterol excretion after PI or PC injection", "assay_type": "in vivo, rabbit", "protocol": "Rabbits are injected with 40 μmol PI or PC vesicles containing 400 μCi […]. Animals are sacrificed at 30 min, and bile is aspirated from the gall bladder. In addition the livers are harvested, homogenized and tissue radioactivity determined. Sterol excretion in the faeces is measured similarly except that faecal cholesterol levels are measured over a time period of 96 hours. Referring now to FIG. 7, there is graphically depicted the effect of PI injection associated with sterol excretion. […] PC injection into a rabbit had no effect on cholesterol excretion, while PI injection enhanced faecal cholesterol output by about 300% at 2 days post injection. The increase in cholesterol output returned to normal by about day 4."}}}
{"smiles": "CCCCCCCC/C=C\\CCCCCCCC(=O)O[C@H](COC(=O)CCCCCCCCCCCCCCC)COP(=O)(O)O[C@@H]1[C@H](O)[C@H](O)[C@@H](O)[C@H](O)[C@H]1O", "note": "[PI, 1-palmitoyl-2-oleoyl phosphatidylinositol]", "values": [{"measurement": "effect on amount of cholesterol in the HDL particles", "setting": "[1]", "value": "slightly increased"}, {"measurement": "reduction in LDL cholesterol levels", "setting": "[1]", "value": "~2.5", "unit": "fold"}, {"measurement": "reduction in VLDL cholesterol", "setting": "[1]", "value": "greater than 7 fold"}, {"measurement": "Lipoprotein Surface Charge LDL", "setting": "[2]; 5 mg/ml", "value": "2.9 -mV"}, {"measurement": "Lipoprotein Surface Charge VLDL", "setting": "[2]; 5 mg/ml", "value": "6.3 -mV"}, {"measurement": "Lipoprotein Surface Charge HDL", "setting": "[2]; 5 mg/ml", "value": "12.4 -mV"}, {"measurement": "Lipoprotein Surface Charge LDL", "setting": "[2]; 10 mg/ml", "value": "3.3 -mV"}, {"measurement": "Lipoprotein Surface Charge VLDL", "setting": "[2]; 10 mg/ml", "value": "6.8 -mV"}, {"measurement": "Lipoprotein Surface Charge HDL", "setting": "[2]; 10 mg/ml", "value": "12.8 -mV"}, {"measurement": "Lipoprotein Surface Charge LDL", "setting": "[2]; 50 mg/ml", "value": "3.4 -mV"}, {"measurement": "Lipoprotein Surface Charge VLDL", "setting": "[2]; 50 mg/ml", "value": "6.9 -mV"}, {"measurement": "Lipoprotein Surface Charge HDL", "setting": "[2]; 50 mg/ml", "value": "13.2 -mV"}, {"measurement": "Lipoprotein Surface Charge LDL", "setting": "[2]; 100 mg/ml", "value": "3.6 -mV"}, {"measurement": "Lipoprotein Surface Charge VLDL", "setting": "[2]; 100 mg/ml", "value": "7.1 -mV"}, {"measurement": "Lipoprotein Surface Charge HDL", "setting": "[2]; 100 mg/ml", "value": "13.4 -mV"}, {"measurement": "[^3H]-FC in plasma and liver in comparison to PC", "setting": "biliary FC output", "value": "reduction of [^3H]-FC in plasma, and an elevation of [^3H]-FC in the liver"}, {"measurement": "enhanced output of cholesterol into bile", "setting": "biliary FC output; in comparison to PC", "value": "About 20 fold"}, {"measurement": "faecal cholesterol output enhanced by", "setting": "[3]; 2 days post injection", "value": "about 300%"}, {"measurement": "increase in cholesterol output returned to normal by", "setting": "[3]; rabbit, in vivo", "value": "~4", "unit": "days"}]}
